Read-outs that look alike come from different tables or passages of the source.
Legend:
[1] = biological target: T1, FFA3/GPR41 (Homo sapiens, UniProt O14843); test: forskolin-stimulated cAMP accumulation assay, Flp-In-293 cells stably expressing FFA3/GPR41; type: cell-based; details: for inhibition at 50 µM / Emax: Flp-In-293; for inhibition at 50 µM: 50 µM compound, NA = not active up to 50 µM; for Emax / EC50: mean ± SD; for Emax: read-out: FFA3/GPR41 Emax, maximal inhibition of forskolin-stimulated cAMP (converted); for EC50: inhibition of forskolin-stimulated cAMP, absence of propionate, read-out: FFA3/GPR41 EC50; for activity towards FFA3/GPR41 (in words): cAMP assay
T1 construct: host or cells: Flp-In-293
T1 sequence (O14843 1-346): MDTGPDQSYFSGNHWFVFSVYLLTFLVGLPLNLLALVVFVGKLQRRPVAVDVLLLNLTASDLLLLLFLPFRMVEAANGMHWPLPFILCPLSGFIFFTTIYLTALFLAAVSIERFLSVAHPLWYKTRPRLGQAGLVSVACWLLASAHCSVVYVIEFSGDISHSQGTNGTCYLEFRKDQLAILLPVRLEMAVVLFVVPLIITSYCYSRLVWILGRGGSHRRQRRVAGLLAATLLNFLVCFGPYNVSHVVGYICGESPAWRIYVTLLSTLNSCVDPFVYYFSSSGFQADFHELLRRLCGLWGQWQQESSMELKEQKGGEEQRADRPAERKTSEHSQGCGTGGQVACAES
Experimental: (§1) All of our synthesized compounds were evaluated in forskolin-stimulated cAMP accumulation assay using Flp-In-293 cells stably expressing human FFA2/GPR43, FFA3/GPR41 or HCA2/GPR109A receptors (Table 1, Table 2 and Table 3; Figure 2).
(§2) Flp-In-293 cells (Invitrogen) were used for the generation of stable FFA3/GPR41 and FFA2/GRP43 cell lines using Flp-In System (Invitrogen). Flp-In-293 cells were cultured in Dulbecco’s modified Eagle medium (DMEM) supplemented with 10% fetal bovine serum (FBS), penicillin (100 U/mL), streptomycin (100 µg/mL), and zeocin (100 µg/mL). The cells were co-transfected with pOG44 (Invitrogen) and pcDNA5/FRT-FFA3 or pcDNA5/FRT-FFA2 using TurboFect (Thermo Fisher Scientific), and stable cell lines were generated according to the manufacturer’s protocol (Invitrogen). After transfection, the cells were cultured under selection pressure due to the presence of hygromycin B (100 µg/mL) in DMEM supplemented with 10% FBS, penicillin, and streptomycin.
(§3) For cAMP assay, the cells were distributed into a 384-well white microplate at a density of 12,000 cells per well and stimulated with the indicated compounds in the presence of 3 μM forskolin for 30 min. […] The cells and the compounds were diluted in 1X phosphate-buffered saline (PBS) supplemented with 0.5 mM of 3-isobutyl-1-methylxanthine. The intracellular cAMP levels were measured using a Lance cAMP kit according to the manufacturer’s instructions. The plates were read on a PerkinElmer Victor 3V multilabel plate reader. The cAMP was quantitated in each sample by comparison to a calibration curve of known cAMP quantities provided in the kit.

[2] = biological target: T2, FFA2/GPR43 (Homo sapiens, UniProt O15552); test: forskolin-stimulated cAMP accumulation assay, Flp-In-293 cells stably expressing FFA2/GPR43; type: cell-based; details: for inhibition at 50 µM / Emax: Flp-In-293; for inhibition at 50 µM: 50 µM compound, NA = not active up to 50 µM; for activity towards FFA2/GPR43 (in words): cAMP assay; for Emax / EC50: mean ± SD; for Emax: read-out: FFA2/GPR43 Emax, maximal inhibition of forskolin-stimulated cAMP (converted); for EC50: inhibition of forskolin-stimulated cAMP
T2 construct: host or cells: Flp-In-293
T2 sequence (O15552 1-330): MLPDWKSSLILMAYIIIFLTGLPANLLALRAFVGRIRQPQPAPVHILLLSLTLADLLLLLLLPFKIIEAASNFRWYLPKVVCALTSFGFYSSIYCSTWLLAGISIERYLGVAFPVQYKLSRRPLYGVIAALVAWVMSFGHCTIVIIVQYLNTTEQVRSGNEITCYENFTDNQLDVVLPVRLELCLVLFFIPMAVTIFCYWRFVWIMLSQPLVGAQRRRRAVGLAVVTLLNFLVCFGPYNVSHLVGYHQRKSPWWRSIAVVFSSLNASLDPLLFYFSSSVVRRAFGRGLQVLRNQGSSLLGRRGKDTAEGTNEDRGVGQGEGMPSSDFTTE
Experimental: as §1, §2, §3

[3] = biological target: T3, HCA2/GPR109A (Homo sapiens, UniProt Q8TDS4); test: forskolin-stimulated cAMP accumulation assay, Flp-In-293 cells stably expressing HCA2/GPR109A; type: cell-based; details: for activity towards HCA2/GPR109A (in words): cAMP assay; for inhibition at 50 µM: 50 µM compound, NA = not active up to 50 µM
T3 construct: expressed in transfected cells; host or cells: Flp-In-293
Experimental: as §1
Flp-In-293 cells stably expressing human HCA2/GPR109A receptor (laboratory collection) were grown in DMEM medium supplemented with 10% FBS, penicillin, streptomycin, and hygromycin B (100 µg/mL). All cells were cultured at 37 °C in a humidified incubator containing 5% CO2.
as §3

[4] = cyclic voltammetry, electrooxidation potential; type: physicochemical; details: vs. Ag/Ag+; acetonitrile, glassy carbon electrode
Experimental: Cyclic voltammetry experiments were carried out using a PARSTAT 2273 electrochemical system. A stationary glassy carbon disk electrode (d = 0.8 mm) served as the working electrode, while the counter electrode was a Pt wire. The oxidation potentials were measured relative to an Ag/Ag^+ reference electrode. Acetonitrile was dried over P2O5 and distilled; the distillate was stored over CaH2 and redistilled immediately prior to use. Recrystallized tetrabutylammonium tetrafluoroborate (TBATFB) was used as a supporting electrolyte at 0.1 M concentration.

[5] = HCA2, mean ± SD, read-out: HCA2/GPR109A Emax, maximal inhibition of forskolin-stimulated cAMP (converted)
[6] = inhibition of forskolin-stimulated cAMP, mean ± SD, read-out: HCA2/GPR109A EC50

T3 sequence (Q8TDS4 whole entry): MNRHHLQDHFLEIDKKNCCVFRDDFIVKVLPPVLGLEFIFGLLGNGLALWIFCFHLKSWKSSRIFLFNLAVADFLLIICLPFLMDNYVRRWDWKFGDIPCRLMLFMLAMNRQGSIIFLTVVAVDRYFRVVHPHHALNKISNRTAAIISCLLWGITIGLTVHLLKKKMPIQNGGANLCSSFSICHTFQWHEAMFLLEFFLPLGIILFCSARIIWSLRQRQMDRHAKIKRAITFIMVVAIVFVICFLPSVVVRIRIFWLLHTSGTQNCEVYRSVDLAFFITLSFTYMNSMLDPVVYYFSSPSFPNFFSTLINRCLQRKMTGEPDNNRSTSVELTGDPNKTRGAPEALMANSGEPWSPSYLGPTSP

| Compound | inhibition at 50 µM [1] [%] | Emax [1] [%] | EC50 [1] [nM] | inhibition at 50 µM [2] [%] | Emax [3, 5] [%] | EC50 [3, 6] [nM] | also measured |
| --- | --- | --- | --- | --- | --- | --- | --- |
| CC1=C(C(=O)Nc2ccc(Cl)cc2)C(c2cccs2)C2=C(CCCC2=O)N1 (stereo not drawn) [1-5, N-(4-Chlorophenyl)-2-methyl-5-oxo-4-(thiophen-2-yl)-1,4,5,6,7,8-hexahydroquinoline-3-carboxamide] | 45 ± 9 |  |  |  |  |  |  |
| CC1=C(C(=O)Nc2ccc(Cl)cc2Cl)C(c2cccs2)C2=C(CCCC2=O)N1 (stereo not drawn) [1-6, N-(2,4-Dichlorophenyl)-2-methyl-5-oxo-4-(thiophen-2-yl)-1,4,5,6,7,8-hexahydroquinoline-3-carboxamide] |  | 82 | 1400 ± 170 |  |  |  |  |
| CC1=C(C(=O)Nc2ccccn2)C(c2cccs2)C2=C(CCCC2=O)N1 (stereo not drawn) [1-7, 2-Methyl-5-oxo-N-(pyridin-2-yl)-4-(thiophen-2-yl)-1,4,5,6,7,8-hexahydroquinoline-3-carboxamide] |  |  |  | 49 ± 8 |  |  | activity towards FFA2/GPR43 (in words) [2]: showed activity; activity towards FFA3/GPR41 (in words) [1]: lost |
| CC1=C(C(=O)N2CCOCC2)C(c2cccs2)C2=C(CCCC2=O)N1 (stereo not drawn) [1-8, 2-Methyl-3-(morpholine-4-carbonyl)-4-(thiophen-2-yl)-4,6,7,8-tetrahydro-1H-quinolin-5-one] | 28 ± 2 |  |  |  |  |  | activity towards HCA2/GPR109A (in words) [3]: lacked activity; activity towards FFA2/GPR43 (in words) [2]: lacked activity |
| CCOC(=O)COC(=O)C1=C(C)NC2=C(C(=O)CCC2)C1c1cccs1 (stereo not drawn) [1-9] |  | 91 | 1900 ± 400 | 40 ± 2 |  |  | El.ox. pot. (first, lower potential) [4]: 1.18 V |
| CCOC(=O)C(OC(=O)C1=C(C)NC2=C(C(=O)CCC2)C1c1cccs1)c1ccccc1 (stereo not drawn) [1-10, (2-Ethoxy-2-oxo-1-phenylethyl)2-methyl-5-oxo-4-(2-thienyl)-4,6,7,8-tetrahydro-1H-quinoline-3-carboxylate] | 49 ± 15 |  |  | 31 ± 4 |  |  | El.ox. pot. (first, lower potential) [4]: 1.18 V; inhibition at 50 µM ([3]; HCA2): 60 ± 5% |
| CCCNCC1=C(C(=O)OCC)C(c2ccc(-c3ccccc3)cc2)C2=C(CC(C)(C)CC2=O)N1 (stereo not drawn) [1-11] | 51 ± 6 |  |  | 55 ± 6 |  |  | inhibition at 50 µM ([3]; HCA2): 52 ± 5% |
| CCN1CC2=C(C1=O)C(c1ccc(-c3ccccc3)cc1)C1=C(CC(C)(C)CC1=O)N2 (stereo not drawn) [1-12] | 16 ± 8 |  |  | 21 ± 4 |  |  | inhibition at 50 µM ([3]; HCA2): 16 ± 4%; activity towards HCA2/GPR109A (in words) [3]: low activity; activity towards FFA2/GPR43 (in words) [2]: low activity; activity towards FFA3/GPR41 (in words) [1]: low activity |
| CC(=O)OCCN1C2=C(C(=O)CC(C)(C)C2)C(c2ccccc2)C2=C1CC(C)(C)CC2=O [1-13] | 30 ± 9 |  |  | 32 ± 7 |  |  | inhibition at 50 µM ([3]; HCA2): 26 ± 8% |
| CCOC(=O)C1=C(C(=O)O)NC2=C(C(=O)CC(C)(C)C2)C1c1ccc(-c2ccccc2)cc1 (stereo not drawn) [1-14] |  |  |  |  |  |  | activity towards HCA2/GPR109A (in words) [3]: completely lacked activity; activity towards FFA2/GPR43 (in words) [2]: completely lacked activity; activity towards FFA3/GPR41 (in words) [1]: completely lacked activity |
| Cc1cc(=O)oc2[nH]c(=S)[nH]c(=O)c12 [2-1] |  | 89 | 4800 ± 360 |  | 96 | 7100 ± 1310 | Emax [2]: 87%; EC50 [2]: 19000 ± 6800 nM |
| CCc1cc(=O)oc2[nH]c(=S)[nH]c(=O)c12 [2-2] |  |  | 370 ± 80 |  |  |  | EC50 [3]: 490 ± 60 nM; Emax ([3]; HCA2, read-out: HCA2/GPR109A Emax, maximal inhibition of forskolin-stimulated cAMP): 99%; Emax [2]: 91%; EC50 [2]: 920 ± 40 nM |
| CCCc1cc(=O)oc2[nH]c(=S)[nH]c(=O)c12 [2-3, 5-Propyl-2-thioxo-2,3-dihydro-1H-pyrano[2,3-d]pyrimidine-4,7-dionee] | 38 ± 2 |  |  | 29 ± 3 | 86 | 870 ± 110 |  |
| CCCCc1cc(=O)oc2[nH]c(=S)[nH]c(=O)c12 [2-4, 5-Butyl-2-thioxo-2,3-dihydro-1H-pyrano[2,3-d]pyrimidine-4,7-dione] |  | 95 | 190 ± 30 |  | 97 | 550 ± 40 | Emax [2]: 93%; EC50 [2]: 740 ± 80 nM |
| CCCCc1cc(=O)oc2[nH]c(=O)[nH]c(=O)c12 [2-5] | 28 ± 4 |  |  |  | 93 | 51 ± 7 | El.ox. pot. (single value) [4]: 1.94 V |
| O=c1cc(CCCCCl)c2c(=O)[nH]c(=S)[nH]c2o1 [2-6, 5-(4-Chlorobutyl)-2-thioxo-2,3-dihydro-1H-pyrano[2,3-d]pyrimidine-4,7-dione] |  | 89 | 340 ± 50 |  | 94 | 350 ± 20 | Emax [2]: 83%; EC50 [2]: 2500 ± 400 nM |
| CCCCc1cc(=O)oc2[nH]c(SCC(=O)OCC)nc(=O)c12 [3-1, Ethyl 5-butyl-4,7-dioxo-1,7-dihydro-4H-(pyrano[2,3-d]pyrimidin-2-ylsulfanyl)acetate] |  | 95 | 1600 ± 500 | 65 ± 1 | 93 | 75000 ± 11000 | El.ox. pot. (single value) [4]: 1.97 V |
| CCOC(=O)CSc1nc(=O)c2c(CCCCCl)cc(=O)oc2[nH]1 [3-2] |  | 91 | 1700 ± 200 | 64 ± 2 | 89 | 43000 ± 8000 |  |
| O=C(CSc1nc(=O)c2c(CCCCCl)cc(=O)oc2[nH]1)Nc1ccccc1C(=O)O [3-7, 2-2-[5-(4-Chlorobutyl)-4,7-dioxo-1,7-dihydro-4H-pyrano[2,3-d]pyrimidin-2-ylsulfanyl]-acetamino-benzoic acid] |  | 87 | 4600 ± 600 | 52 ± 10 |  |  | inhibition at 50 µM ([3]; HCA2): 30 ± 6% |

From paper PMC8537386, “The Specificity and Broad Multitarget Properties of Ligands for the Free Fatty Acid Receptors FFA3/GPR41 and FFA2/GPR43 and the Related Hydroxycarboxylic Acid Receptor HCA2/GPR109A” (Pharmaceuticals, 2021)
